Measured values from US20260132129A1 (Genesis Therapeutics, Inc., priority 2022, published 2026).

Biological target: T1, PI3Kα H1047R (T47D cells) (Homo sapiens, UniProt P42336, H1047R)
T1 construct: endogenous in cells; host or cells: T47D cells
Assay: PI3Kα cellular assay: pAKT HTRF in T47D cells after EGF stimulation
Assay type: cell-based
Details: for IC50: T47D cells (PI3Kα H1047R), pAKT S473 HTRF
Procedure, shortened: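 T47D cells (PIK3CA H1047R) serum-starved 16 h, then treated 1 h at 37 °C with compound (10,000 nM top, 3-fold steps to 0.5 nM). After 10 min stimulation with 20 ng/mL EGF, cells were lysed and pAKT measured by HTRF.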

[1] = 1 hr compound, 20 ng/ml EGF 10 min
[2] = selectivity T47D (H1047R) over SKBR3 (WT), pAKT HTRF
[3] = selectivity of T47D (H1047R) over SKBR3 (WT) pAKT IC50

T1 sequence (P42336 whole entry H1047R): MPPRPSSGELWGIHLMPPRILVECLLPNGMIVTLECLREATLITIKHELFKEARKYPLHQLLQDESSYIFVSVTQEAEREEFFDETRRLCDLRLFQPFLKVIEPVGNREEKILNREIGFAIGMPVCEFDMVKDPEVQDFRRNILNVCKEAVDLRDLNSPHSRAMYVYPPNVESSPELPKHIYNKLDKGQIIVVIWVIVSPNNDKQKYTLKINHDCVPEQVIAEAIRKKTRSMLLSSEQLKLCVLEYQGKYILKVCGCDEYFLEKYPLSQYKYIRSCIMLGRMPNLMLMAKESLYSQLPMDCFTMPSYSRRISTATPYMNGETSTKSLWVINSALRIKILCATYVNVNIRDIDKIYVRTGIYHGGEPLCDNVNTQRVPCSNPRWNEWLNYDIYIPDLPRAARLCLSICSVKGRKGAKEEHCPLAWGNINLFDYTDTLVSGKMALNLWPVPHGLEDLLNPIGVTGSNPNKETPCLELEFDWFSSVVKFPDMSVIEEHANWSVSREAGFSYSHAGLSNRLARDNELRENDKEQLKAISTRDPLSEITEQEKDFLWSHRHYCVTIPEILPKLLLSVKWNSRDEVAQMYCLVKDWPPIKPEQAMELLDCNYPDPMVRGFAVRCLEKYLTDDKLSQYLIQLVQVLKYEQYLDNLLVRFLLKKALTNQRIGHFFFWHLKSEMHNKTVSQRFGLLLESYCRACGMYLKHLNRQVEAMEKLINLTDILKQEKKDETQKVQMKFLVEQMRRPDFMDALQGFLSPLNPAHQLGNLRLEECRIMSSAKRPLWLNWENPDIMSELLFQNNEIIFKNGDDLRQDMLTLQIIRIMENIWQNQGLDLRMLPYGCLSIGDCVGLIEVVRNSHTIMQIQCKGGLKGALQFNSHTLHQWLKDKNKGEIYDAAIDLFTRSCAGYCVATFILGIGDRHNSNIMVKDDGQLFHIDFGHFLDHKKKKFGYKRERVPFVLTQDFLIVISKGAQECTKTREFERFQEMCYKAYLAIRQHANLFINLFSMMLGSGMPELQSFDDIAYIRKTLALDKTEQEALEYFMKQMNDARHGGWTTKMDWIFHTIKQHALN
T1 sequence (P27986 whole entry partner): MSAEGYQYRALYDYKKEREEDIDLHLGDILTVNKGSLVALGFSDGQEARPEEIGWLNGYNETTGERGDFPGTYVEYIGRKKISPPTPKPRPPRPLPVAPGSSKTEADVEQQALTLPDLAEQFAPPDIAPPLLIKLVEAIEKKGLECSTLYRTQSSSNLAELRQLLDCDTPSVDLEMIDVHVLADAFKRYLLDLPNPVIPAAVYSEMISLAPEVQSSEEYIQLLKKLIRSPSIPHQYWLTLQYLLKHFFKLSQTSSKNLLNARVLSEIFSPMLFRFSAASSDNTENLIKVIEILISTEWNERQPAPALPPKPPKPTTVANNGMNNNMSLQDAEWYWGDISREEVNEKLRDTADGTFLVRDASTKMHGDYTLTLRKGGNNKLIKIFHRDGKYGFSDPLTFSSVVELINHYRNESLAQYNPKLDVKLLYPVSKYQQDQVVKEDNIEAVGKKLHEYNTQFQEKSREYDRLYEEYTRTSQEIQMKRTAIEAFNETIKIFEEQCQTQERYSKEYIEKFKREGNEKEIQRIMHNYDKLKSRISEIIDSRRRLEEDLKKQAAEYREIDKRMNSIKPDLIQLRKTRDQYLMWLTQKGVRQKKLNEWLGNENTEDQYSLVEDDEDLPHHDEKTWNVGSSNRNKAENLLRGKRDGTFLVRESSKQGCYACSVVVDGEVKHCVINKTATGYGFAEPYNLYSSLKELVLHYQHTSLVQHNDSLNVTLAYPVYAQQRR

| SMILES | IC50 [1] [nM] | T47D pAKT S473 HTRF IC50 (H1047R): T47D (H1047R) selectivity over SKBR3 (WT) [2] | T47D pAKT S473 HTRF IC50 (H1047R): T47D (H1047R) selectivity over SKBR3 (WT) [3] | IC50 (EGF stimulation) [nM] |
| --- | --- | --- | --- | --- |
| Cc1cc([C@@H](C)Nc2ccccc2C(=O)O)c2nc(C3CCC(C)(C)CC3)cc(=O)n2c1 [Compound 623, (R)-2-((1-(2-(4,4-dimethylcyclohexyl)-7-methyl-4-oxo-4H-pyrido[1,2-a]pyrimidin-9-yl)ethyl)amino)benzoic acid] | < 100 | A (A denotes >20-fold) |  |  |
| Cc1cc([C@H](C)Nc2ccccc2C(=O)O)c2nc(C3CCC(C)(C)CC3)cc(=O)n2c1 [Compound 624] | > 2000 | C (C denotes ≤5-fold) |  |  |
| Cc1cc([C@@H](C)Nc2ccccc2C(=O)O)c2nc(-c3ccccc3)cc(=O)n2c1 [Compound 628] | > 2000 | C (C denotes ≤5-fold) |  |  |
| Cc1cc([C@H](C)Nc2ccccc2C(=O)O)c2nc(-c3ccccc3)cc(=O)n2c1 [Compound 629] | < 100 | A (A denotes >20-fold) |  |  |
| Cc1cc(C(C)Nc2ccccc2)c2nc(N3Cc4ccccc4C3)cc(=O)n2c1 (centres unmarked) [Compound 647] |  |  | C (C denotes ≤5-fold) |  |
| Cc1cc([C@@H](C)N[C@H](C(=O)O)c2ccccc2)c2nc(N3CCOCC3)cc(=O)n2c1 [Compound 648] |  |  | C (C denotes ≤5-fold) | > 2000 |
| Cc1cc([C@@H](C)N[C@@H](C(=O)O)c2ccccc2)c2nc(N3CCOCC3)cc(=O)n2c1 [Compound 649] |  |  | C (C denotes ≤5-fold) | > 2000 |
| Cc1cc([C@H](C)N[C@H](C(=O)O)c2ccccc2)c2nc(N3CCOCC3)cc(=O)n2c1 [Compound 650] |  |  | C (C denotes ≤5-fold) | > 2000 |
| Cc1cc([C@H](C)N[C@@H](C(=O)O)c2ccccc2)c2nc(N3CCOCC3)cc(=O)n2c1 [Compound 651] |  |  | C (C denotes ≤5-fold) | > 2000 |
| Cc1cc([C@H](C)Nc2ccccc2C(=O)O)c2nc(N3Cc4ccccc4[C@H]3C)cc(=O)n2c1 [Compound 654] |  |  | B (B denotes 20-fold≥value>5-fold) | 500 to 2000 |
| Cc1cc([C@@H](C)Nc2ccccc2C(=O)O)c2nc(N3Cc4ccccc4[C@H]3C)cc(=O)n2c1 [Compound 655] |  |  | C (C denotes ≤5-fold) | > 2000 |
| Cc1cc(C(C)Nc2ccccc2C(=O)O)c2nc(-c3ccc(C(=O)N(C)C)cc3)cc(=O)n2c1 (centres unmarked) [Compound 657] |  |  | B (B denotes 20-fold≥value>5-fold) |  |
| Cc1cc([C@@H](C)Nc2ccccc2C(=O)O)c2nc(-c3ccc(C(=O)N(C)C)cc3)cc(=O)n2c1 [Compound 658] |  |  | A (A denotes >20-fold) | 100 to 500 |
| Cc1cc([C@H](C)Nc2ccccc2C(=O)O)c2nc(-c3ccc(C(=O)N(C)C)cc3)cc(=O)n2c1 [Compound 659] |  |  | C (C denotes ≤5-fold) | > 2000 |
| CC(=O)c1ccc(-c2cc(=O)n3cc(C)cc([C@@H](C)Nc4ccccc4C(=O)O)c3n2)cc1 [Compound 660] |  |  | A (A denotes >20-fold) | < 100 |
| CC(=O)c1ccc(-c2cc(=O)n3cc(C)cc([C@H](C)Nc4ccccc4C(=O)O)c3n2)cc1 [Compound 661] |  |  | C (C denotes ≤5-fold) | > 2000 |
| Cc1cc([C@@H](C)Nc2ccccc2C(=O)O)c2nc(-c3cc(C)c(F)c(C)c3)cc(=O)n2c1 [Compound 662] |  |  | A (A denotes >20-fold) | 100 to 500 |
| Cc1cc([C@H](C)Nc2ccccc2C(=O)O)c2nc(-c3cc(C)c(F)c(C)c3)cc(=O)n2c1 [Compound 663] |  |  | C (C denotes ≤5-fold) | > 2000 |
| Cc1cc(C(C)Nc2ccccc2-c2ccnnc2)c2nc(N3Cc4ccccc4C3)cc(=O)n2c1 (centres unmarked) [Compound 665, 2-(isoindolin-2-yl)-7-methyl-9-(1-((2-(pyridazin-4-yl)phenyl)amino)ethyl)-4H-pyrido[1,2-a]pyrimidin-4-one] |  |  | A (A denotes >20-fold) | 100 to 500 |
| Cc1cc(C(C)Nc2cccc3c2OCC(=O)N3)c2nc(N3CCOCC3)cc(=O)n2c1 (centres unmarked) [Compound 684] |  |  | C (C denotes ≤5-fold) | > 2000 |
| Cc1cc([C@@H](C)Nc2cccc3c2OCC(=O)N3)c2nc(N3CCOCC3)cc(=O)n2c1 [Compound 685] |  |  | C (C denotes ≤5-fold) | > 2000 |
| Cc1cc([C@H](C)Nc2cccc3c2OCC(=O)N3)c2nc(N3CCOCC3)cc(=O)n2c1 [Compound 686] |  |  | C (C denotes ≤5-fold) | > 2000 |
| Cc1cc([C@H](C)Nc2cccc3c2CCC(=O)N3)c2nc(N3CCOCC3)cc(=O)n2c1 [Compound 688] |  |  | C (C denotes ≤5-fold) | > 2000 |
| Cc1cc(C(C)Nc2ccccc2C(=O)O)c2nc(-c3ccc(F)cc3)c(C)c(=O)n2c1 (centres unmarked) [Compound 691, 2-((1-(2-(4-fluorophenyl)-3,7-dimethyl-4-oxo-4H-pyrido[1,2-a]pyrimidin-9-yl)ethyl)amino)benzoic acid] |  |  | A (A denotes >20-fold) | < 100 |
| Cc1cc(C(C)Nc2ccccc2C(=O)O)c2nc(-c3ccc4c(c3)c(C)nn4C)cc(=O)n2c1 (centres unmarked) [Compound 695] |  |  | A (A denotes >20-fold) |  |
| Cc1cc([C@H](C)Nc2ccccc2C(=O)O)c2nc(-c3ccc4c(c3)c(C)nn4C)cc(=O)n2c1 [Compound 697] |  |  | C (C denotes ≤5-fold) |  |
| Cc1cc(C(C)Nc2ccccc2-c2ccnnc2)c2nc(N3CC(C)OC(C)C3)cc(=O)n2c1 (centres unmarked) [Compound 698] |  |  | C (C denotes ≤5-fold) |  |
| Cc1cc([C@@H](C)Nc2ccccc2-c2ccnnc2)c2nc(N3CC(C)OC(C)C3)cc(=O)n2c1 (some centres unmarked) [Compound 699] |  |  | C (C denotes ≤5-fold) |  |
| Cc1cc([C@H](C)Nc2ccccc2-c2ccnnc2)c2nc(N3C[C@@H](C)O[C@@H](C)C3)cc(=O)n2c1 [Compound 700] |  |  | A (A denotes >20-fold) |  |
| Cc1cc(C(C)Nc2ccccc2C(=O)O)c2nc(-c3ccc4c(c(N)nn4C)c3C)cc(=O)n2c1 (centres unmarked) [Compound 701] |  |  | C (C denotes ≤5-fold) | > 2000 |
